Tests used:
rabbits = conditions: literature (Crosson); cited from earlier work
cynomolgus monkeys = conditions: literature (Kaufman et al.); cited from earlier work
Wistar rats = experiment: IOP measurements in rats (anesthetized, topical administration to the eye); format: in vivo; conditions: rat, 10 mg/ml, 10 μl
Method: B-1. IOP Measurements in Rats
Wistar rats with a body weight of about 300 g were anesthetized with isoflurane (2-3% in O2:N2O=1:2). The compounds were dissolved/suspended in an aqueous solution of sodium chloride (0.9%) and administered topically to the eye in 10 μl volume at a concentration of 10 mg/ml. IOP was measured with a rebound tonometer (TonoLab) at different time points after application of the compounds. Ocular pressure and effects of hemodynamic parameters can be monitored in this model. N^6-Cyclopentyl-Adenosine (CPA) is a known adenosine A1 agonist having the structure shown below: […]

Normotensive wistar rats = experiment: Blood pressure measurement in telemetric rats (conscious, topical administration to the eye); format: in vivo; conditions: conscious rat, 10 mg/ml
Excerpt: B-2. Blood Pressure Measurement in Telemetric Rats
Normotensive wistar rats with a body weight of 300 to 350 g were used for this experimental study. Blood pressure was monitored in freely moving conscious animals by radiotelemetry. Briefly, the telemetric system (DSI Data Science International, MN, USA) is composed on 3 basic elements: implantable transmitters (TA11PA-C40), receivers (RA1010) and a computer-based acquisition software (Dataquest A.R.T 2.1 for Windows). Rats were instrumented with pressure implants for chronic use at least 14 days prior the experiments. Rats were anesthetized with isoflurane (2-3% in O2:N2O=1:2). During catheter implantation under anesthesia, rats were kept on a heating mat. A fluid-filled sensor catheter was inserted upstream into the exposed descending aorta between the iliac bifurcation and the renal arteries. According to the DSI guidelines the tip of the telemetric catheter was located just caudal to the renal arteries and secured by tissue adhesive. The transmitter body was affixed to the inner peritoneal wall before closure of abdomen. In a hardware configuration equipped for 24 animals, each rat cage was positioned on top of an individual receiver platform. After activation of the implanted transmitters, A.R.T., an on-line data acqusition system, samples data and converts telemetric pressure signals into mm Hg. The compounds were dissolved/suspended in an aqueous solution of sodium chloride (0.9%) and administered topically to the eye in 10 μl volume at a concentration of 10 mg/ml. Given are % deviations from the control run-in period of 2 hours before substance administration.

[1] = tested on: Female New Zealand rabbits; experiment: IOP measurements in conscious rabbits; format: in vivo; conditions: conscious rabbit, topical, 30 μl
Method: B-5. IOP Measurements in Conscious Rabbits
Female New Zealand rabbits with a body weight of about 4-5 kg were used to measure inner eye pressure (IOP). The compounds were dissolved/suspended in a solution of 10% transcutol, 10% solutol and 80% PBS, and given by topical administration at the eye in 30 μl volume. IOP was measured with a rebound tonometer (TonoVet) at different time points after application of the drugs. INO-8875 is a known adenosine A1 agonist having the structure shown below: […]

New Zealand rabbits = experiment: Assessment of blood pressure in telemetric rabbits; format: in vivo; conditions: conscious rabbit, topical, 30 μl
Method: B-6. Assessment of Blood Pressure and Heart Rate in Telemetric Rabbits Implantation of Telemetric Senders in Female New Zealand Rabbits:
New Zealand rabbits were used for implantation of the telemetric senders. Rabbits were pre-anaesthetized with Rompun® and Ketavet® i.m. at a dose of 5 mg/kg (in 0.25 ml/kg)+40 mg/kg (in 0.40 ml/kg) respectively. Anaesthesia was maintained with an i.v. infusion of Rompun® and Ketavet® (5-15 ml/h) with a solution of Rompun 2 ml (20 mg/1 ml)+Ketavet 4 ml (100 mg/ml) and 60 ml 0.9% aqueous solution of sodium chloride. Before surgery the hairs at the inner side of the back leg were completely removed and the skin were treated with local anaesthetic Xylocaln® Spray and disinfected with Braunol®. The rabbits were transferred to a sterile surgery unit and covered with sterile swabs and compressions. The skin was opened and the arteria femoralis was carefully dissected free and the pressure catheter of the telemetric implant C50 PXT® (DSI/Data Science International, St. Paul, Minn., U.S.A.) was inserted in the […] and forwarded abdominally under control of the pressure signal. The signal was detected with the RMC1-DSI® receiver plates and visualized with the PONEMAH® physiology platform software DSI/Data Science International, St. Paul, Minn., U.S.A.). After detection of a stable blood pressure signal the catheter was fixed with tissue-glue “Gewebepad” (DSI) and the two ECG electrodes were cut close to the transmitter. The transmitter was fixed under the skin of the rabbit. The wound was closed and finally treated with Nebacetin® Powder Spray. Post-operative analgesia was done with Metamizol i.m. 50 mg/kg in 0.1 ml/kg for 5 days after surgery. In addition a 5 day antibiotic therapy with Terramycin®/LA 20 mg/kg with 0.1 ml/kg was applied i.m. All rabbits recovered fully within one week of the surgery and were after 2 weeks adjustment to the measurement procedure used for the blood pressure detection.
Registration of MAP and HR in Conscious Female New Zealand Rabbits:
The rabbits with telemetric implants were housed for 5 hours in a transportation box which was placed on the RMC1-DSI® receiver plates. The signals were visualized, compiled and analyzed with the PONEMAH® physiology platform software. The systolic (SAP), diastolic (DAP) and mean arterial blood pressure (MAP) levels were registered in mmHg and the heart rate (HR) in beat/minutes was calculated from the interval between the systoles. Baseline levels for SAP, DAP and MAP as for HR were registered over a 2 hour equilibration period. The compounds were dissolved/suspended in a solution of 10% transcutol, 10% solutol and 80% PBS, and given by topical administration at the eye in 30 μl volume. Controls received the corresponding solvents. Baseline levels for SAP, DAP and MAP as for HR were registered over a 3 hour period after application.

OC[C@H]1O[C@@H](n2cnc3c(NC4CCCCC4)ncnc32)[C@H](O)[C@@H]1O [CHA, N6-cyclohexyl-adenosine]
effect on intraocular pressure (rabbits): lower intraocular pressure
effect on intraocular pressure (cynomolgus monkeys): lower intraocular pressure

OC[C@H]1O[C@@H](n2cnc3c(NC4CCCC4)ncnc32)[C@H](O)[C@@H]1O [CPA, N^6-Cyclopentyl-Adenosine]
IOP as percent of zero value (Wistar rats; time 0 min): 100.0%
IOP as percent of zero value (Wistar rats; time 15 min): 65.0%
IOP as percent of zero value (Wistar rats; time 30 min): 58.5%
IOP as percent of zero value (Wistar rats; time 45 min): 46.3%
IOP as percent of zero value (Wistar rats; time 60 min): 42.5%
IOP as percent of zero value (Wistar rats; time 90 min): 44.8%
IOP as percent of zero value (Wistar rats; time 120 min): 59.0%
mean arterial pressure (MAP) as percent change of zero value (Normotensive wistar rats; time 0.25 h): −25.4%
mean arterial pressure (MAP) as percent change of zero value (Normotensive wistar rats; time 0.75 h): −71.3%
mean arterial pressure (MAP) as percent change of zero value (Normotensive wistar rats; time 1.25 h): −58.9%
mean arterial pressure (MAP) as percent change of zero value (Normotensive wistar rats; time 1.75 h): −42.6%
mean arterial pressure (MAP) as percent change of zero value (Normotensive wistar rats; time 2.25 h): −30.3%
mean arterial pressure (MAP) as percent change of zero value (Normotensive wistar rats; time 2.75 h): −17.6%
mean arterial pressure (MAP) as percent change of zero value (Normotensive wistar rats; time 3.25 h): −16.4%
mean arterial pressure (MAP) as percent change of zero value (Normotensive wistar rats; time 3.75 h): −9.0%
mean arterial pressure (MAP) as percent change of zero value (Normotensive wistar rats; time 4.25 h): −8.4%
mean arterial pressure (MAP) as percent change of zero value (Normotensive wistar rats; time 4.75 h): −5.3%
mean arterial pressure (MAP) as percent change of zero value (Normotensive wistar rats; time 5.25 h): −0.7%
mean arterial pressure (MAP) as percent change of zero value (Normotensive wistar rats; time 5.75 h): −2.9%
mean arterial pressure (MAP) as percent change of zero value (Normotensive wistar rats; time 6.25 h): −2.7%
mean arterial pressure (MAP) as percent change of zero value (Normotensive wistar rats; time −0.25 h): 0.0%

O=[N+]([O-])OC[C@H]1O[C@@H](n2cnc3c(NC4CCCC4)ncnc32)[C@H](O)[C@@H]1O [INO-8875]
IOP as percent of zero value ([1]; 1.0 mg/mL, time 0 min): 100.0%
IOP as percent of zero value ([1]; 1.0 mg/mL, time 30 min): 85.3%
IOP as percent of zero value ([1]; 1.0 mg/mL, time 60 min): 86.7%
IOP as percent of zero value ([1]; 1.0 mg/mL, time 90 min): 93.3%
IOP as percent of zero value ([1]; 1.0 mg/mL, time 120 min): 100%
IOP as percent of zero value ([1]; 3.0 mg/mL, time 0 min): 100.0%
IOP as percent of zero value ([1]; 3.0 mg/mL, time 30 min): 89.3%
IOP as percent of zero value ([1]; 3.0 mg/mL, time 60 min): 81.3%
IOP as percent of zero value ([1]; 3.0 mg/mL, time 90 min): 79.0%
IOP as percent of zero value ([1]; 3.0 mg/mL, time 120 min): 87.3%
IOP as percent of zero value ([1]; 10.0 mg/mL, time 0 min): 100.0%
IOP as percent of zero value ([1]; 10.0 mg/mL, time 30 min): 74.0%
IOP as percent of zero value ([1]; 10.0 mg/mL, time 60 min): 60.0%
IOP as percent of zero value ([1]; 10.0 mg/mL, time 90 min): 61.3%
IOP as percent of zero value ([1]; 10.0 mg/mL, time 120 min): 65.0%
mean arterial pressure (MAP) (New Zealand rabbits; 1.0 mg/mL, time 0 min): 123.9 mm Hg
mean arterial pressure (MAP) (New Zealand rabbits; 1.0 mg/mL, time 30 min): 111.3 mm Hg
mean arterial pressure (MAP) (New Zealand rabbits; 1.0 mg/mL, time 60 min): 110.9 mm Hg
mean arterial pressure (MAP) (New Zealand rabbits; 1.0 mg/mL, time 90 min): 112.6 mm Hg
mean arterial pressure (MAP) (New Zealand rabbits; 1.0 mg/mL, time 120 min): 106.0 mm Hg
mean arterial pressure (MAP) (New Zealand rabbits; 3.0 mg/mL, time 0 min): 118.5 mm Hg
mean arterial pressure (MAP) (New Zealand rabbits; 3.0 mg/mL, time 30 min): 101.8 mm Hg
mean arterial pressure (MAP) (New Zealand rabbits; 3.0 mg/mL, time 60 min): 104.9 mm Hg
mean arterial pressure (MAP) (New Zealand rabbits; 3.0 mg/mL, time 90 min): 105.7 mm Hg
mean arterial pressure (MAP) (New Zealand rabbits; 3.0 mg/mL, time 120 min): 109.0 mm Hg
mean arterial pressure (MAP) (New Zealand rabbits; 10.0 mg/mL, time 0 min): 114.5 mm Hg
mean arterial pressure (MAP) (New Zealand rabbits; 10.0 mg/mL, time 30 min): 89.5 mm Hg
mean arterial pressure (MAP) (New Zealand rabbits; 10.0 mg/mL, time 60 min): 86.9 mm Hg
mean arterial pressure (MAP) (New Zealand rabbits; 10.0 mg/mL, time 90 min): 90.3 mm Hg
mean arterial pressure (MAP) (New Zealand rabbits; 10.0 mg/mL, time 120 min): 90.0 mm Hg

C[C@H](Cc1ccccc1)Nc1ncnc2c1ncn2[C@@H]1O[C@H](CO)[C@@H](O)[C@H]1O [R-PIA, R(−)-N6-(2-phenylisopropyl)adenosine]
effect on intraocular pressure (rabbits): lower intraocular pressure
effect on intraocular pressure (cynomolgus monkeys): lower intraocular pressure

— patent US9040566B2, “Adenosine A1 agonists for the treatment of glaucoma and ocular hypertension” (Bayer Intellectual Property GmbH, priority 2010, dated 2015)
